Reference: ChEMBL document CHEMBL1201862, “PubChem BioAssay data set” (2004)
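Assay format: 96-well plates, 48-hour exposure. The concentration for 50% growth inhibition is given as GI50.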 The source made the active and inactive calls. Rule as the data show it: active = GI50 up to about 1.1 µM and inactive = higher.

Experiments:
Experiment in all cases: DTP human tumour cell line panel, 48 h
ACHN = test system: ACHN
CAKI-1 = test system: CAKI-1
OVCAR-5 = test system: OVCAR-5
UACC-62 = test system: UACC-62
HOP-92 = test system: HOP-92
SK-MEL-2 = test system: SK-MEL-2
COLO 205 = test system: COLO 205
UO-31 = test system: UO-31
SN12C = test system: SN12C
KM12 = test system: KM12
HCC 2998 = test system: HCC 2998
SNB-19 = test system: SNB-19
HOP-62 = test system: HOP-62
RPMI-8226 = test system: RPMI-8226
SNB-75 = test system: SNB-75
NCI-H460 = test system: NCI-H460
SK-OV-3 = test system: SK-OV-3
CCRF-CEM = test system: CCRF-CEM
T47D = test system: T47D
DU-145 = test system: DU-145

| Structure (SMILES) | GI50 (ACHN) | GI50 (CAKI-1) | GI50 (OVCAR-5) | GI50 (UACC-62) | GI50 (HOP-92) | GI50 (SK-MEL-2) | GI50 (COLO 205) | GI50 (UO-31) | GI50 (SN12C) | GI50 (KM12) | GI50 (HCC 2998) | GI50 (SNB-19) | GI50 (HOP-62) | GI50 (RPMI-8226) | GI50 (SNB-75) | GI50 (NCI-H460) | GI50 (SK-OV-3) | GI50 (CCRF-CEM) | GI50 (T47D) | GI50 (DU-145) |
| --- | --- | --- | --- | --- | --- | --- | --- | --- | --- | --- | --- | --- | --- | --- | --- | --- | --- | --- | --- | --- |
| CC(C1=CC=C2[C@@H]3CCC4CC(N(C)C)CC[C@]4(C)C3CC[C@]12C)N(C)C=O (some centres undefined) | > 100 µM (inactive) | > 100 µM (inactive) | > 100 µM (inactive) | > 100 µM (inactive) | > 100 µM (inactive) | > 100 µM (inactive) | > 100 µM (inactive) | > 100 µM (inactive) | > 100 µM (inactive) | > 100 µM (inactive) | > 100 µM (inactive) | > 100 µM (inactive) | > 100 µM (inactive) | 78.3 µM (inactive) | 52.8 µM (inactive) | > 10 µM (inactive) | > 100 µM (inactive) | > 100 µM (inactive) | – | – |
| Cc1nc(N)c(N2CCN(S(N)(=O)=O)CC2)c(O)n1 | > 100 µM (inactive) | – | > 100 µM (inactive) | – | – | > 100 µM (inactive) | > 100 µM (inactive) | > 100 µM (inactive) | > 100 µM (inactive) | > 100 µM (inactive) | > 100 µM (inactive) | > 100 µM (inactive) | > 100 µM (inactive) | > 100 µM (inactive) | > 100 µM (inactive) | > 100 µM (inactive) | – | > 100 µM (inactive) | > 100 µM (inactive) | > 100 µM (inactive) |
| C=C(CCCCC)CN1CCCC1C(C)=O (centres undefined) | 25.5 µM (inactive) | 34.7 µM (inactive) | 22.2 µM (inactive) | 25.4 µM (inactive) | 20.3 µM (inactive) | 26.1 µM (inactive) | 17.1 µM (inactive) | 31.4 µM (inactive) | 29.1 µM (inactive) | 33 µM (inactive) | 32.4 µM (inactive) | > 62.1 µM (inactive) | 22.3 µM (inactive) | 13.1 µM (inactive) | 24.7 µM (inactive) | 29 µM (inactive) | 31.2 µM (inactive) | 12.9 µM (inactive) | – | – |
| COc1ccc(NC(=O)/C(=N/O)C(C)=O)cc1 | > 100 µM (inactive) | > 100 µM (inactive) | > 100 µM (inactive) | > 100 µM (inactive) | > 100 µM (inactive) | > 100 µM (inactive) | – | > 100 µM (inactive) | > 100 µM (inactive) | > 100 µM (inactive) | > 100 µM (inactive) | > 100 µM (inactive) | > 100 µM (inactive) | > 100 µM (inactive) | > 100 µM (inactive) | 23.5 µM (inactive) | > 100 µM (inactive) | 75.3 µM (inactive) | – | – |
| CCOC(=O)C(NC(=O)Nc1ccc(Cl)cc1)(OC)C(F)(F)F (centres undefined) | 0.757 µM (active) | 74.3 µM (inactive) | 21.5 µM (inactive) | – | – | 0.973 µM (active) | 12.2 µM (inactive) | 5.75 µM (inactive) | 41 µM (inactive) | – | 7.45 µM (inactive) | 22.2 µM (inactive) | – | – | > 100 µM (inactive) | – | > 100 µM (inactive) | – | 70 µM (inactive) | – |
| COc1ccc(O)cc1 [MEQUINOL] | 31.3 µM (inactive) | 94.4 µM (inactive) | 35.4 µM (inactive) | 24.8 µM (inactive) | 44.1 µM (inactive) | > 100 µM (inactive) | > 100 µM (inactive) | 57.4 µM (inactive) | > 100 µM (inactive) | 42.7 µM (inactive) | > 100 µM (inactive) | > 100 µM (inactive) | 40.8 µM (inactive) | > 100 µM (inactive) | > 100 µM (inactive) | 97.1 µM (inactive) | > 100 µM (inactive) | 60.3 µM (inactive) | – | – |
| COc1nc2ncc([C@@H](OC(C)=O)[C@@H](COC(C)=O)OC(C)=O)nc2c(=O)[nH]1 | > 100 µM (inactive) | > 100 µM (inactive) | > 100 µM (inactive) | > 100 µM (inactive) | – | > 100 µM (inactive) | > 100 µM (inactive) | > 100 µM (inactive) | > 100 µM (inactive) | > 100 µM (inactive) | – | > 100 µM (inactive) | > 100 µM (inactive) | > 100 µM (inactive) | – | > 100 µM (inactive) | > 100 µM (inactive) | > 100 µM (inactive) | > 100 µM (inactive) | > 100 µM (inactive) |
| O=C(O)CCCCCO | > 100 µM (inactive) | > 100 µM (inactive) | > 100 µM (inactive) | > 100 µM (inactive) | > 100 µM (inactive) | > 100 µM (inactive) | > 100 µM (inactive) | > 100 µM (inactive) | > 100 µM (inactive) | > 100 µM (inactive) | > 100 µM (inactive) | > 100 µM (inactive) | > 100 µM (inactive) | > 100 µM (inactive) | > 100 µM (inactive) | > 100 µM (inactive) | > 100 µM (inactive) | > 100 µM (inactive) | – | – |
